Molecules are shown by their SMILES.

The source of these data is PMC5737711 (ACS chemical neuroscience, 2017).

Assay [1] addresses CD36-Aβ interaction (recombinant extracellular domain of human CD36, fibrillar hAβ 1-42) (Homo sapiens, UniProt P16671). Briefly: Colorimetric assay for inhibitors of Aβ-CD36 interaction. In kind it is binding. The note with it: for Activity on the CD36-Aβ interaction (screen): first evaluated at 100 μM.
Assay [2] relates to CD36-Aβ interaction. Conditions: cited from earlier work.
The test system of assay [3] is N9 microglia cells. The note with it: cited from earlier work.

Sequence of CD36-Aβ interaction (recombinant extracellular domain of human CD36, fibrillar hAβ 1-42) (P16671 30-439): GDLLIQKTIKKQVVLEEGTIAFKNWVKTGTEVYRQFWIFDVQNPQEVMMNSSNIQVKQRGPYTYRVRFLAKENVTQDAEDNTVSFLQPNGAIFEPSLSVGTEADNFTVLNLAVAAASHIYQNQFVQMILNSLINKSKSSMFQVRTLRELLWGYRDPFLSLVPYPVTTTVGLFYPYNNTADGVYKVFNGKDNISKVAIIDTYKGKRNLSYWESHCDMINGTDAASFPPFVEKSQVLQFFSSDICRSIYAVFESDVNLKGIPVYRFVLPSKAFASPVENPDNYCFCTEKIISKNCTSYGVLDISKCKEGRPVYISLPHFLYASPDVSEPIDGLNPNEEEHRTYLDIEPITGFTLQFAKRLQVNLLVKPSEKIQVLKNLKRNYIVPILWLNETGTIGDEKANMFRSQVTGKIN

In the case of `COc1ccc2cc(NC(=O)C3=NO[C@H]4[C@H](O)C=C[C@@H](Cl)[C@@]4(O)C3)c(=O)oc2c1OC` [Compound 2, Trichodermamide B], the “Activity on the CD36-Aβ interaction (screen)” value in assay [1] is given as “lacked activity”.

Turning to `C[C@H]1[C@H](C)CC[C@]2(C(=O)O)CC[C@]3(C)C(=CC[C@@H]4[C@@]5(C)CC[C@H](O)C(C)(C)[C@@H]5CC[C@]43C)[C@H]12` [ursolic acid], the “Mode of inhibition of the interaction CD36-Aβ” value in assay [1] (from dose response profile) is “competitive inhibitor”. Moreover, the “Inhibition of CD36-Aβ interaction in a cell-based assay” value in assay [2] was “inhibitor of CD36-Aβ interaction”. Moreover, in assay [3], the “Effect on production of ROS induced by Aβ” value is on record as “inhibits the production of ROS”.

In the case of `COc1ccc2cc(NC(=O)C3=NO[C@H]4[C@H](O)C=C[C@@H](O)[C@@]4(O)C3)c(=O)oc2c1OC` [Compound 1, Trichodermamide A], the “Activity on the CD36-Aβ interaction (screen)” value in assay [1] is given as “lacked activity”.
